Values of other authors, collected in patent publication US20140010866A1, “METHODS AND SYSTEMS FOR TREATMENT OF MIGRAINES AND OTHER INDICATIONS” (Strategic Science & Technologies, LLC, priority 2010, published 2014).

Row | Compound | pKa
1 | CC(C)C[C@H]1C(=O)N2CCC[C@H]2[C@]2(O)O[C@](NC(=O)[C@@H]3C=C4c5cccc6[nH]c(Br)c(c56)C[C@H]4N(C)C3)(C(C)C)C(=O)N12 [bromocriptine] | 11.13
2 | CNS(=O)(=O)CCc1ccc2[nH]cc(C3CCN(C)CC3)c2c1 [naratriptan] | 17.11
3 | CC(C)[C@H]1C(=O)N2CCC[C@H]2[C@]2(O)O[C@@](C)(NC(=O)[C@@H]3C=C4c5cccc6[nH]cc(c56)C[C@H]4N(C)C3)C(=O)N12 [ergovaline] | 11.64
4 | CN(C)CCc1c[nH]c2ccc(CS(=O)(=O)N3CCCC3)cc12 [almotriptan] | 8.77
5 | CN(C)CCc1c[nH]c2ccc(C[C@H]3COC(=O)N3)cc12 [zolmitriptan] | 17.15
6 | CN[C@@H]1CCc2[nH]c3ccc(C(N)=O)cc3c2C1 [frovatriptan] | 17.27
